From patent US9464110B2, “Acyl dipeptide derivative” (AJINOMOTO CO., INC., priority 2012, dated 2016)
≈ marks a conversion by molar mass, not a printed value. Where a SMILES comes first, the peptide text is derived from it. The star is where a group is joined. Decanoyl = CCCCCCCCCC(=O)*

Tests used:
Propionibacterium acnes = experiment: minimal growth inhibitory concentration (MIC) test, agar dilution; assay type: cell-based; details: Cutibacterium acnes; GAM agar medium, 35° C., 48 hr anaerobic culture; read-out: minimal growth inhibitory concentration against Propionibacterium acnes
Method: (§1) The compound of Synthetic Example 1 was subjected to a minimal growth inhibitory concentration (MIC) test against Propionibacterium acnes (P. acnes) and Trichophyton mentagrophytes (T. mentagrophytes). The test method is shown below. (1) Preparation of Test Bacterial Culture Propionibacterium acnes: Anaerobically cultured in a GAM agar medium at 35° C. for 48 hr. A part thereof was transplanted into a GAM bouillon medium, and anaerobically cultured at 35° C. for 24 hr. The culture medium was diluted with GAM bouillon medium to adjust to about 10^6 cells/mL and used as a test bacterial culture. Trichophyton mentagrophytes: Test bacteria were cultured in a Sabouraud glucose agar medium at 25° C. for 7-14 days, spore and hypha pick were scraped with a platinum loop, suspended in polysorbate 80 0.05% sterile saline and ground in a homogenizer. The solution was filtered through sterile gauze folded in four, and diluted with polysorbate 80 0.05% sterile saline to adjust to about 10^6 cells/mL and used as a test bacterial culture. (2) Preparation of Antimicrobial Agent Dilution Solution A sample was diluted with sterile purified water to prepare a 100000-1000 μg (active ingredient)/mL dilution series. (3) Preparation of Antimicrobial Agent-Added Agar Medium The agar medium was dispensed by 9.0 mL into a test tube and, after autoclave sterilization, and incubated in a molten state at 50° C. […]

[1] = test system: Trichophyton mentagrophytes; experiment: as above; assay type: cell-based; details: 168 h, Sabouraud glucose agar medium, 25° C., 7 days, read-out: minimal growth inhibitory concentration against Trichophyton mentagrophytes
Method: as §1

- MIC (Propionibacterium acnes): 2000 to 3000 µg/mL (≈ 5.46 to 8.19 mM)
- MIC [1]: 1000 to 1500 µg/mL (≈ 2.73 to 4.09 mM)
Structure (SMILES): CCCCCCCCCC(=O)N1CCC[C@H]1C(=O)N1CCC[C@H]1C(=O)O [Synthetic Example 1, decanoyl prolylproline] (Decanoyl-Pro-Pro-OH)
